From US10815276B2, “Cell penetrating peptides and methods of making and using thereof” (Entrada Therapeutics, Inc., priority 2014, dated 2020)
Read-outs that look alike come from different tables or passages of the source. Starred links: 1 amine or outer side, 2 acyl side, 3 side chain; linkers in the order of their positions; H or OH if unused. Positions of bridges follow the written chain, without caps; N, C: chain ends. Non-standard residues stand in square brackets, D forms with d. Residues, ends and D or L forms follow the SMILES beside them. Groups on a side chain read outwards from the residue. Ala(7-OPO3H2-coumarin-4-yl) = N[C@@H](Cc1cc(=O)oc2cc(OP(=O)(O)O)ccc12)C(=O)O; Trimesoyl = O=C(c1cc(C(=O)[*:2])cc(C(=O)[*:3])c1)[*:1]; d(pT) = C[C@H](OP(=O)(O)O)[C@@H](N)C(=O)O; 2Nal = N[C@@H](Cc1ccc2ccccc2c1)C(=O)O; NMeF = CN[C@@H](Cc1ccccc1)C(=O)O; Pip = O=C(O)[C@@H]1CCCCN1; Dap = NC[C@H](N)C(=O)O; AEEA = NCCOCCOCC(=O)O; Sar = CNCC(=O)O

Experiments:
HeLa cells [1] = conditions: MTT
Excerpt: The effect of peptide 37 on the growth of HeLa cells was examined by using the MTT cell viability assay.

Pin1 [2] = target: T1, Pin1 (Homo sapiens, UniProt Q13526, S16A/Y23A); assay: Pin1 binding by FA (FITC-labeled peptides)
T1 construct: The full-length human S16A/Y23A mutant Pin1 was expressed and purified from E. coli; made in house

HeLa cells [3] = assay: MTT proliferation assay with Pin1 inhibitors; assay type: cell-based, human; conditions: MTT
Experimental: HeLa cells (100 μL/each well, 5×10^4 cells/mL) were seeded in a 96-well culture plate and allowed to grow overnight in DMEM supplemented with 10% FBS. […] After that, 10 μL of a MTT stock solution (5 mg/mL) was added into each well. The plate was incubated at 37° C. for 4 h and 100 μL of SDS-HCl solubilizing solution was added into each well, followed by thorough mixing. The plate was incubated at 37° C. overnight and the absorbance of the formazan product was measured at 570 nm on a Molecular Devices Spectramax M5 plate reader. Each experiment was performed in triplicates and the cells untreated with peptide were used as control.

HeLa cells [4] = assay: Cellular uptake by flow cytometry; assay type: cell-based, human; conditions: 5 μM FITC-labeled peptide, 2 h
Experimental: The cellular uptake efficiency of peptide 37, peptide 1, and a previously reported membrane-impermeable monocyclic Pin1 inhibitor (Table 18, peptide 46) was assessed by incubating HeLa cells with the FITC-labeled peptides (5 μM) for 2 h and quantifying the total intracellular fluorescence by flow cytometry analysis. […] By contrast, cells treated with peptides 1 and 37 gave MFI values of 2562 and 8792, respectively. Thus, peptide 37 is internalized by HeLa cells ˜4-fold more efficiently than peptide 1. Presumably, the negative charged phosphate group of peptide 1 interacted electrostatically with the positively charged CPP motif and reduced the cellular uptake efficiency of the latter.

Jurkat cells = assay: In cellulo fluorimetric caspase assay; assay type: cell-based; conditions: staurosporin-treated cells, 5 μM peptide, 10-h period
Experimental: 100 μL of Jurkat cell suspension (5×10^5 cells/mL) was seeded in 96-well plate one hour prior to the experiment. Ten μL of staurosporine stock solution (10 μM) was added into half of the wells to induce apoptosis, while 10 μL of media was added to the other wells. After 1 h incubation, caspase-3 fluorogenic substrates were added to the cells to a final concentration of 5 μM. The fluorescence of the released coumarin was measured on the Spectramax M5 plate reader with excitation and emission wavelengths at 360 and 440 nm at various times points (0-6 h). The fluorescence unit (FU) increases between induced and uninduced cells were plotted against the time to present caspase-3 activities measured using various fluorogenic substrates in living cell in real-time. Three independent sets of experiments, each performed in triplicate, were conducted.
Jurkat cells were pretreated with the kinase inhibitor staurosporin to induce caspase activities and thus apoptosis (Belmokhtar, C A et al. Biochem. J. 1996, 315, 21). These cells were then incubated with peptides 3-7 and the amount of Amc released was monitored at various time points (0-10 h). […] Peptide 4 produced the fastest fluorescence increase, reaching 459 fluorescence units (FU), followed by peptides 7 and 6. […] This slow rate of AMC release can be attributed to hydrolysis by other intracellular proteases and peptidases. Consistent with this interpretation, pretreatment of Jurkat cells with a pancaspase inhibitor Z-VAD(OMe)-FMK (Slee, E A et al. Biochem J. 1996, 315, 21) followed by incubation with peptide 4 released AMC at a rate that was similar to that of peptide 5 alone. One explanation of the above observations is that both peptides 4 and 5 can enter the cell interior efficiently, but only peptide 4 can be converted into the linear caspase substrate inside the cells.

HeLa cells [5] = assay: Cytoplasmic delivery of pCAP-containing peptides, flow cytometry; conditions: 10 μM peptide; for Mean fluorescence intensity (MFI) of CAP: 2 h
HEK293 cells = assay: Live-cell confocal microscopy of internalization; assay type: cell-based, human; conditions: 5 μM pCAP peptide, 60 min
Experimental: To examine the internalization of rhodamine-labeled peptides, 5×10^4 HEK293 cells were plated in a 35 mm glass-bottomed microwell dish (MatTek). […] The cells were gently washed with DPBS twice and imaged on a Visitech Infinity 3 Hawk 2D-array live cell imaging confocal microscope. To detect the internalization of pCAP-containing peptides, HEK293 cells were similarly plated and incubated with the peptide solution (5 μM) at 37° C. for 60 min. After removal of the medium, the cells were gently washed with DPBS containing sodium pervanadate (1 mM) twice and incubated for 10 min in DPBS containing 5 μM nuclear staining dye DRAQS. The resulting cells were washed with DPBS twice and imaged on a spinning disk confocal microscope (UltraView Vox CSUX1 system). To monitor GFP internalization, 5×10^4 HEK293 cells were seeded in a 35 mm glass-bottomed microwell dish and cultured overnight. Cells were treated with cFΦR4-S-S-GFP (1 μM) at 37° C. for 2 h. After removal of the medium, the cells were incubated in DPBS containing 5 μM DRAQS for 10 min. The cells were washed with DPBS twice and imaged on a Visitech Infinity 3 Hawk 2D-array live cell imaging confocal microscope.

Pin1 [6] = target: T1, Pin1; assay: Fluorescence anisotropy binding to Pin1; conditions: FITC-labeled peptide, FA analysis
Experimental: The gene coding for the catalytic domain of PTP1B (amino acids 1-321) was amplified by the polymerase chain reaction using PTP1B cDNA as template and oligonucleotides 5′-[…]-3′ and 5′-[…]-3′ as primers. […] Expression and purification of the ybbR-tagged PTP1B were carried out as previously described (Ren, L et al. Biochemistry 2011, 50, 2339-2356). […] The reaction mixture was passed through a G-25 fast-desalting column equilibrated in 30 mM HEPES, pH 7.4, 150 mM NaCl to remove any free dye molecules. The full-length human S16A/Y23A mutant Pin1 was expressed and purified from E. coli as previously described (Liu, T et al. J. Med. Chem. 2010, 53, 2494-2501).
FA experiments were carried out by incubating 100 nM FITC-labeled peptide with varying concentrations of protein in 20 mM HEPES (pH 7.4), 150 mM NaCl, 2 mM magnesium acetate, and 0.1% bovine serum albumin (BSA) for 2 h at room temperature. The FA values were measured on a Molecular Devices Spectramax M5 plate reader, with excitation and emission wavelengths at 485 and 525 nm, respectively. Equilibrium dissociation constants (KD) were determined by plotting the FA values as a function of protein concentration and fitting the curve to the following equation:
[formula] where Y is the FA value at a given protein concentration x, L is the peptide concentration, Qb/Qf is the correction factor for fluorophore-protein interaction, Amax is the maximum FA value when all of the peptides are bound to protein, while Amin is the minimum FA value when all of the peptides are free. FA competition assay was performed by incubating 100 nM FITC-labeled Pin1 inhibitor 5 with 1 μM Pin1, followed by the addition of 0-5 μM unlabeled inhibitor. The FA values were measured similarly on a pate reader. IC50 values were obtained by plotting the FA values against the competitor concentration and curve fitting using the four-parameter dose-response inhibition equation (Prism 6, GraphPad).

HeLa cells [7] = assay: Western blot of PML protein level; assay type: cell-based, human; conditions: 0.2-5 μM
Experimental: FIGS. 38A, 38B, 38C, and 38D display cellular activity of peptide 37. (FIG. 38A) Cellular uptake of peptides 1, 37, and 46 (5 μM) by HeLa cells as analyzed by flow cytometry. MFI, mean fluorescence intensity; none, untreated cells (no peptide). (FIG. 38B) Anti-proliferative effect of peptides 37, 46, and 47 on HeLa cells as measured by MTT assay. (FIG. 38C) Western blots showing the effect of peptides 1, 37 and 47 on the protein level of PML in HeLa cells. β-Actin was used as loading control. (FIG. 38D) Quantification of western blot results from (FIG. 38C). Data reported were after background subtraction and represent the mean±SD from 3 independent experiments.
Finally, to ascertain that Pin1 is the molecular target of peptide 37 in vivo, the intracellular protein level of a well-established Pin1 substrate, […] (PML), was examined by western blot analysis. Pin1 negatively regulates the PML level in a phosphorylation-dependent manner and inhibition of Pin1 activity is expected to stabilize PML and increase its intracellular level. […] The effect was already significant at 0.2 μM inhibitor (1.8-fold increase in the PML level) and plateaued at ˜1 μM (3.3-fold increase). Again, bicyclic peptide 47 had no effect under the same conditions, while peptide 1 (the positive control, at 5 μM) increased the PML level by 3.1-fold.

C[C@H](OP(=O)(O)O)[C@H]1NC(=O)CN(C)C(=O)[C@@H](C)NC(=O)[C@H](CCC(=O)N[C@@H](CCCCN)C(N)=O)NC(=O)[C@H](Cc2ccc(O)cc2)NC(=O)[C@H](Cc2ccc3ccccc3c2)NC(=O)[C@@H]2CCCCN2C1=O [Peptide 46, cyclo(D-Ala-Sar-D-pThr-Pip-Nal-Tyr-Gln)-Lys, reference compound] (cyclo([dA][Sar][d(pT)][Pip][2Nal]YE([Lys-NH2])); ring closure inferred)
Effect on cell growth (HeLa cells [1]): neither peptide 46 nor 47 had any effect | Kd (Pin1 [2]): 240 ± 40 nM | Effect on cell growth (HeLa cells [3]): no effect | Mean fluorescence intensity (MFI) (HeLa cells [4]): 193

C[C@@H]1NC(=O)[C@H](CCCNC(=N)N)NC(=O)[C@H](Cc2ccc3ccccc3c2)NC(=O)[C@@H]2CCCCN2C(=O)[C@@H]([C@H](C)O)NC(=O)CNC(=O)[C@H](Cc2ccccc2)N(C)C(=O)c2cc3cc(c2)C(=O)NC[C@H](NC(=O)[C@@H](C)NC1=O)C(=O)N[C@@H](Cc1ccccc1)C(=O)N[C@@H](Cc1ccc2ccccc2c1)C(=O)N[C@@H](CCCNC(=N)N)C(=O)N[C@@H](CCCNC(=N)N)C(=O)N[C@@H](CCCNC(=N)N)C(=O)N[C@@H](CCCNC(=N)N)C(=O)N[C@H](C(=O)N[C@@H](CCCCN)C(N)=O)CNC3=O [Peptide 5, bicyclo[Tm-(Mpa-Gly-D-Thr-Pip-Nal-Arg-Ala-D-Ala)-Dap-(Phe-Nal-Arg-Arg-Arg-Arg-Dap)]-Lys] ([NMeF]G[dT][Pip][2Nal]RA[dA][Dap]F[2Nal]RRRR[Dap]K-NH2; linker N-9-16 via Trimesoyl; C-terminus assumed)
Fluorescence increase (released Amc) (Jurkat cells): 99 FU

cyclo(FΦRRRRQ)-miniPEG-DE(pCAP)LI (cyclo(F[2Nal]RRRRQ[AEEA]DE[Ala(7-OPO3H2-coumarin-4-yl)]LI); not fully specified (C-terminus, bridges); printed as cyclo(FΦRRRRQ)-miniPEG-DE(pCAP)LI) [cFΦR4-PCP]
Mean fluorescence intensity (MFI) of CAP (HeLa cells [5]): 3510 AU | MFI of CAP in the presence of sodium pervanadate (HeLa cells [5]; PTP inhibitor sodium pervanadate): 70 AU | CAP fluorescence in cells (confocal) (HEK293 cells): diffuse blue fluorescence throughout the cell

C[C@@H]1NC(=O)[C@H](CCCNC(=N)N)NC(=O)[C@H](Cc2ccc3ccccc3c2)NC(=O)[C@@H]2CCCCN2C(=O)[C@@H](CC(=O)O)NC(=O)CN(C)C(=O)[C@@H]2CCCN2C(=O)c2cc3cc(c2)C(=O)NC[C@@H](C(=O)N[C@@H](CCCCN)C(N)=O)NC(=O)[C@H](CCCNC(=N)N)NC(=O)[C@H](CCCNC(=N)N)NC(=O)[C@H](CCCNC(=N)N)NC(=O)[C@H](CCCNC(=N)N)NC(=O)[C@H](Cc2ccc4ccccc4c2)NC(=O)[C@H](Cc2ccccc2)NC(=O)[C@H](CNC3=O)NC1=O [Peptide 9, bicyclo[Tm-(Pro-Sar-D-Asp-Pip-Nal-Arg-Ala)-Dap-(Phe-Nal-Arg-Arg-Arg-Arg-Dap)]-Lys] (P[Sar][dD][Pip][2Nal]RA[Dap]F[2Nal]RRRR[Dap]K-NH2; linker N-8-15 via Trimesoyl; C-terminus assumed)
Effect on cell growth (HeLa cells [3]): no effect | KD (Pin1 [6]): abolished Pin1 inhibitory activity

bicyclo[Tm-(D-Ala-Sar-D-Thr-D-Ala-Nal-Arg-Ala-D-Ala)-Dap-(Phe-Nal-Arg-Arg-Arg-Arg-Dap)]-Lys [Peptide 47]
Effect on cell growth (HeLa cells [1]): neither peptide 46 nor 47 had any effect | KD (μM) (Pin1 [2]; FITC-labeled peptide, FA): No | Effect on the PML level (HeLa cells [7]): no effect

RQIKIWFQNRRMKWKK-miniPEG-DE(pCAP)LI (RQIKIWFQNRRMKWKKXDEXLI; miniPEG linker; pCAP residue; (17)..(17) 8-amino-3,6-dioxaoctanoic acid; (20)..(20) phosphocoumaryl amino propionic acid) [Antp-PCP, reference compound]
Mean fluorescence intensity (MFI) of CAP (HeLa cells [5]): 400 AU | CAP fluorescence in cells (confocal) (HEK293 cells): weak fluorescence

RRRRRRRRR-miniPEG-DE(pCAP)LI (RRRRRRRRRXDEXLI; miniPEG linker, pCAP residue; (10)..(10) 8-amino-3,6-dioxaoctanoic acid; (13)..(13) phosphocoumaryl amino propionic acid) [Peptide R9-PCP, reference compound]
Mean fluorescence intensity (MFI) of CAP (HeLa cells [5]): 960 AU | CAP fluorescence in cells (confocal) (HEK293 cells): weak fluorescence
